Experiments:
[1] = tested on: patients with anxiety disorder without somatic illness; experiment: Same phase II study: acute alterations of mind (5D-ASC) and mystical-type effects (MEQ30); format: in vivo, human
Description: Each of the four LSD/Placebo sessions lasted 12 hours from 8 AM to 8 PM. Sessions took place in a quiet room at the Ambulatory Study Center of the University Hospital Basel (Basel center) or in the private practice office of Dr. P. Gasser (Solothurn center). At the beginning of the session, current mood and mental state were discussed and a urine drug screen was taken and any AEs since the last visit were recorded. Any open questions or concerns were addressed by the investigator. The participants were advised to lie in a bed or sit comfortably on a chair. Other than going to the bathroom, the participants remained in the treatment room for the entire 12-hour experimental session and were supervised constantly up to 8-12 hours after LSD/placebo administration depending on the participant's response and as needed. The subjective effects of LSD at the dose used in this study were expected to last 8-12 hours (Gasser et al., 2014; Holze et al., 2021; Schmid et al., 2015). […] During the LSD/placebo effect, the participants were instructed to focus their awareness inward. Subjects were encouraged to wear eye shades during the first hours (or the light was dimmed) as well as to listen to music and discussions/talking much with the investigator were discouraged. Subjects were allowed to remain mostly undisturbed with brief physical contacts every two hours when heart rate and blood pressure were measured. At the end of the sessions, 10-12 hours after LSD/placebo administration, the acute subjective peak effects were retrospectively rated by the participants using the 5D-ASC, SCQ, AMRS, and VASs and the experience was discussed. Ten-twelve hours after LSD/placebo administration the participants were allowed to return to their home with company and supervision provided by the partner, a relative, or a friend. […]
The 5 dimensions of altered states of consciousness (5D-ASC) scale is a visual analog scale consisting of 94 items (Dittrich, 1998; Studerus et al., 2010). […] Each item of the scale was scored on a 0-100 mm VAS. […]

[2] = tested on: 5-HT1 receptors; conditions: cited from earlier work
[3] = tested on: dopaminergic D1-3 receptors; conditions: cited from earlier work
[4] = tested on: healthy subjects; conditions: cited from earlier work
[5] = tested on: patients with anxiety disorder without somatic illness; experiment: Same phase II study: adverse events; format: in vivo, human
Source text: Subjects were asked to report any adverse events (AEs) during the sessions or between study sessions at the beginning of the next session/visit and at the end of study (EOS) visit. The investigator rated hallucinogen-specific AEs that occurred during the session using a checklist adapted from (Gasser et al., 2014; Griffiths et al., 2006; Schmid et al., 2015). Peak effects were rated at the end of the session based on the patients description and investigators' observation by the investigator as “not reported”, “mild”, “moderate”, or “severe” for: headache, dizziness, dry mouth, nausea, anxiety, paranoid thinking, emotional distress, emotional lability, blurred vision, chills/feeling cold, impaired balance. Heart rate and blood pressure were measured at 2-hourly intervals (Grob et al., 2011).
AEs were described and recorded on the subject's CRF, regardless of the severity or relationship to the IMP. AEs were rated for severity and the potential relationship to the study interventions was evaluated by the investigator according standard criteria. Subjects with AEs were treated appropriately. Abnormal laboratory values not explained by the patients' disease had to be repeated until normal or until the abnormality caould be explained and the subject's safety was not at risk.

[6] = tested on: adrenergic α1 receptors; conditions: cited from earlier work
[7] = 200 μg oral, cited from earlier work
[8] = follow-up visits, not including treatment sessions

## CCN(CC)C(=O)[C@@H]1C=C2c3cccc4[nH]cc(c34)C[C@H]2N(C)C1 [LSD, lysergic acid diethylamide]
[1]; 200 μg vs placebo, similar at first and second session
  ratings of mystical-type experiences on the MEQ30 questionnaire: significantly and strongly increased
[1]; 200 μg, all p<0.001 vs. placebo, comparable at session 1 and 2
  alterations in all scales of the 5D-ASC questionnaire: significant and marked alterations
[1]; 200 μg, comparison with Holze et al., 2021
  acute effects (5D-ASC) compared with healthy subjects given the same dose: generally greater
[2]
  activity at 5-HT1 receptors: stimulates
[3]
  activity at dopaminergic D1-3 receptors: stimulates
[4]; 200 μg oral, 16 healthy subjects
  duration of alterations in waking consciousness: 12 h
[4]; 200 μg oral
  blood pressure, heart rate, body temperature, pupil size, plasma cortisol, prolactin, oxytocin, and epinephrine: significantly increased
  time until adverse effects completely subsided: ≤ 72 h
[4]; 200 μg, acute AE
  difficulty concentrating, number of subjects of 16 participants: 10
  dizziness, number of subjects of 16 participants: 7
  headache, number of subjects of 16 participants: 9
  nausea, number of subjects of 16 participants: 4
  transient moderate anxiety, number of subjects of 16 participants: 4
[4]; 200 μg
  duration of LSD effects after administration: up to 12 hours
  time of peak LSD effects: 2 h
[5]; 100 μg instead of 200 μg, patient with paranoia SAE
  tolerability after dose lowered: tolerated well
[5]; all follow-up visits of the period, not including treatment sessions
  fatigue, total of reported AEs: 9
[5]; during the treatment session
  anxiety at onset of the LSD effect: two
  headache: one
  nausea: two
  strong anxiety/paranoia: one
[5]; first LSD session, 200 μg
  SAE: paranoia during the LSD session (expected reaction to LSD): one
[5]; [8]
  common cold, total of reported AEs: 7
  depression, total of reported AEs: 3
  difficulty concentrating, total of reported AEs: 5
  headache, total of reported AEs: 6
  nausea, total of reported AEs: 3
  vertigo, total of reported AEs: 5
[6]
  activity at adrenergic α1 receptors: stimulates
[7]; 16 healthy subjects
  time to maximal concentrations of LSD: 1.5 h
[7]; first-order kinetics up to 12 hours
  half-life: 3.6 h

— US20220273628A1, “EFFECTS OF LYSERGIC ACID DIETHYLAMIDE (LSD) AND OF LSD ANALOGS TO ASSIST PSY[…] G[…] DISORDER OR OTHER ANXIETY NOT RELATED TO LIFE-T[…]” (Universitätsspital Basel, priority 2021, published 2022)
